Data from article PMC4965148 (PLoS ONE, 2016).
Where “and” joins values, the source holds several entries; their conditions need not be identical. Identical values can stand only once. Like-named read-outs stand apart in the source and are kept apart here.

What was measured:
Opiate Kappa = Opiate Kappa (Homo sapiens, UniProt P41145); experiment: Selectivity panel, binding
5-HT2B = 5-HT2B (Homo sapiens, UniProt P41595); experiment: Selectivity panel, functional; assay type: cell-based
α7 nAChR = target: T1, α7 nAChR (Rattus norvegicus, UniProt Q05941); experiment: Ex vivo α7 nAChR occupancy ([3H]-A-585539); assay type: in vivo; details: for receptor occupancy at 10 mg/kg: rat
T1 construct: One forebrain hemisphere from each animal was thawed and homogenized in assay buffer; from tissue; host or cells: forebrain homogenate of dosed male Sprague Dawley rats
T1 sequence (Q05941 23-502): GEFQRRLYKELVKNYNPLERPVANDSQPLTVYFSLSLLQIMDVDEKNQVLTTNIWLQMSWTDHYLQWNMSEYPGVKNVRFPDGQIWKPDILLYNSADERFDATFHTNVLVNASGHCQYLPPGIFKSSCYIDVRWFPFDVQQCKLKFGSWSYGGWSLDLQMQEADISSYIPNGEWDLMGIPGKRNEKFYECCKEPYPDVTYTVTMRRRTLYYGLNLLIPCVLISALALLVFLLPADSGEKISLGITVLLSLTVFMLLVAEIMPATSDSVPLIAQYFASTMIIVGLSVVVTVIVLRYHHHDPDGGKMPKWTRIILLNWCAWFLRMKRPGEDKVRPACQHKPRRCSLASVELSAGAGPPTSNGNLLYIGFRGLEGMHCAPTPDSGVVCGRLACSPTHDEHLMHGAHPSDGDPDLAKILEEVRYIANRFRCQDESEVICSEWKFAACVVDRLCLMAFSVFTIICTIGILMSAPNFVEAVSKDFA

[1] = system: S(+)ketamine treated rats; experiment: Rat S(+)ketamine N40 gating
[2] = Plasma and brain concentrations after dosing; assay type: in vivo, rat; details: for concentration at 150 min / concentration at 30 min: brain, read-out: Brain Mean ± SD; for concentration at 150 min / Kp at 150 min: oral; for concentration at 30 min / Kp at 30 min: sc
Procedure: At specified time points after dosing, the forebrain (for occupancy), the remaining hindbrain (for brain drug exposure) and plasma were collected, frozen in chilled isopentane and stored at -80°C until assayed.
In brief, 50 μL of the plasma sample was extracted by protein precipitation with 150 μL acetonitrile containing an internal standard and 5 μL of supernatant injected into the LC-MS/MS system. Analytes were separated by reversed phase chromatography and detection of each analyte was achieved through selected reaction monitoring mode of mass spectrometry.

Chain of Opiate Kappa (P41145 whole entry): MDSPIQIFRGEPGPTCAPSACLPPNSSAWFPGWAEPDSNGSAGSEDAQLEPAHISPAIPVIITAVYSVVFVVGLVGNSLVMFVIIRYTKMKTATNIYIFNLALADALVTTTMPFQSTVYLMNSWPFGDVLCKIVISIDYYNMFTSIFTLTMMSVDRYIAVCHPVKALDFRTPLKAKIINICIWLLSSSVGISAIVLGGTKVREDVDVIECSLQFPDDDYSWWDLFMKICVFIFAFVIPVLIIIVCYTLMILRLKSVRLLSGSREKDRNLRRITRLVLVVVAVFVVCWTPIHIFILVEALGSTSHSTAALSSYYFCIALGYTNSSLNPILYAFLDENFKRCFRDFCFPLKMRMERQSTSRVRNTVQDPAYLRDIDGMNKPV
Chain of 5-HT2B (P41595 whole entry): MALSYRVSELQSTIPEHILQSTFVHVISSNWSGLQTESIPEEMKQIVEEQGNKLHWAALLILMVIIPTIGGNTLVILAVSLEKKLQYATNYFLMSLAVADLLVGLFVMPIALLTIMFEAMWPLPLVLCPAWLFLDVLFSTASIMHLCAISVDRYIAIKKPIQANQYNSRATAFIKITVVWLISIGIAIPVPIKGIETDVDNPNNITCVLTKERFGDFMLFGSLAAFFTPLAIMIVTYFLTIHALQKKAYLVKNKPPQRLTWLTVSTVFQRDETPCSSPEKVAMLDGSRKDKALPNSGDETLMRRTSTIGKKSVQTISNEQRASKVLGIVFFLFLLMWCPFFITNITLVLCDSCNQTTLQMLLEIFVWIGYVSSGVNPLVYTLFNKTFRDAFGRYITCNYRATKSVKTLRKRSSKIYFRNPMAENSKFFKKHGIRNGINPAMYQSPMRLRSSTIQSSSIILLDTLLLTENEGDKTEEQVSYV

c1cn(-c2cc(NC3=NC[C@@]4(CN5CCC4CC5)O3)ncn2)cn1 [BMS-933043, (2R)-N-(6-(1H-imidazol-1-yl)-4-pyrimidinyl)-4'H-spiro[4-azabicyclo[2.2.2]octane-2,5'-[1,3]oxazol]-2'-amine]
IC50 (Opiate Kappa): > 30 µM | EC50 (5-HT2B): > 10 µM | % ex vivo α7 nAChR occupancy (α7 nAChR; 3 mg/kg po, 90 min, individual rats): 65% and 63% and 62% and 28% | % ex vivo α7 nAChR occupancy (α7 nAChR; 10 mg/kg po, 90 min): 83% and 78% and 77% and > 75% | % ex vivo α7 nAChR occupancy (α7 nAChR; 30 mg/kg po, 90 min, individual rats): 82% and 90% and 67% and 69% | receptor occupancy at 10 mg/kg (α7 nAChR; po, 10 mg/kg po, 90 min, read-out: % ex vivo α7 nAChR occupancy): 80% | receptor occupancy at 10 mg/kg (α7 nAChR; rats, 10 mg/kg sc to 30 mg/kg po, read-out: ex vivo α7 nAChR occupancy at doses associated with a loss of efficacy): ≥ 80% | EC50 (α7 nAChR; rats, read-out: total plasma concentration achieving 50% ex vivo α7 nAChR occupancy): 0.81 µM | deficit in N40 gating following S(+)ketamine ([1]; 0.3 and 10 mg/kg sc): neither the lowest dose (0.3 mg/kg; data not shown) nor the highest dose (10 mg/kg) tested were significantly different | deficit in N40 gating following S(+)ketamine ([1]; 0.56, 1 and 3 mg/kg sc): significant reduction | Active dose range, S(+)Ketamine N40 gating ([1]; sc): 0.56–3.0 (sc) mg/kg | Brain Mean ± SD ([2]; Rat MK-801 Set Shift (0.3-3 mg/kg study), 0.30 mg/kg po, 150 min): < LLQ | concentration at 150 min ([2]; rat, 1 mg/kg, Rat MK-801 Set Shift (0.3-3 mg/kg study), 1 mg/kg po, 150 min): 13 ± 3 nM | concentration at 150 min ([2]; rat, 3 mg/kg, Rat MK-801 Set Shift (0.3-3 mg/kg study), 3 mg/kg po, 150 min): 100 ± 39 nM | concentration at 150 min ([2]; rat, 3 mg/kg, Rat MK-801 Set Shift (3-30 mg/kg study), 3 mg/kg po, 150 min): 132 ± 17 nM | concentration at 150 min ([2]; rat, 10 mg/kg, Rat MK-801 Set Shift (3-30 mg/kg study), 10 mg/kg po, 150 min): 533 ± 111 nM | concentration at 150 min ([2]; rat, 30 mg/kg, Rat MK-801 Set Shift (3-30 mg/kg study), 30 mg/kg po, 150 min): 2220 nM | concentration at 30 min ([2]; rat, 0.03 mg/kg, Rat MMN, 0.03 mg/kg sc): 13 nM | concentration at 30 min ([2]; rat, 0.3 mg/kg, Rat MMN, 0.30 mg/kg sc): 13 ± 0.65 nM | concentration at 30 min ([2]; rat, 0.3 mg/kg, Rat N40 Gating, 0.30 mg/kg sc): 21 ± 6 nM | concentration at 30 min ([2]; rat, 0.56 mg/kg, Rat N40 Gating, 0.56 mg/kg sc): 42 ± 10 nM | concentration at 30 min ([2]; rat, 1 mg/kg, Rat MMN, 1 mg/kg sc): 74 ± 18 nM | concentration at 30 min ([2]; rat, 1 mg/kg, Rat N40 Gating, 1 mg/kg sc): 97 ± 14 nM | concentration at 30 min ([2]; rat, 3 mg/kg, Rat MMN, 3 mg/kg sc): 378 ± 161 nM | concentration at 30 min ([2]; rat, 3 mg/kg, Rat N40 Gating, 3 mg/kg sc): 372 ± 33 nM | Kp at 150 min ([2]; rat, brain/plasma, 1 mg/kg, Rat MK-801 Set Shift (0.3-3 mg/kg study), 1 mg/kg po, 150 min): 0.25 | Kp at 150 min ([2]; rat, brain/plasma, 3 mg/kg, Rat MK-801 Set Shift (0.3-3 mg/kg study), 3 mg/kg po, 150 min): 0.24 | Kp at 150 min ([2]; rat, brain/plasma, 3 mg/kg, Rat MK-801 Set Shift (3-30 mg/kg study), 3 mg/kg po, 150 min): 0.29 | Kp at 150 min ([2]; rat, brain/plasma, 10 mg/kg, Rat MK-801 Set Shift (3-30 mg/kg study), 10 mg/kg po, 150 min): 0.29 | Kp at 150 min ([2]; rat, brain/plasma, 30 mg/kg, Rat MK-801 Set Shift (3-30 mg/kg study), 30 mg/kg po, 150 min): 0.31 | Kp ([2]; rat, brain/plasma, other: subcutaneous or oral (pooled over all rat studies), rats): 0.28 | Kp at 30 min ([2]; rat, brain/plasma, 0.03 mg/kg, Rat MMN, 0.03 mg/kg sc): 0.57 | Kp at 30 min ([2]; rat, brain/plasma, 0.3 mg/kg, Rat MMN, 0.30 mg/kg sc): 0.17 | Kp at 30 min ([2]; rat, brain/plasma, 0.3 mg/kg, Rat N40 Gating, 0.30 mg/kg sc): 0.26 | Kp at 30 min ([2]; rat, brain/plasma, 0.56 mg/kg, Rat N40 Gating, 0.56 mg/kg sc): 0.3 | Kp at 30 min ([2]; rat, brain/plasma, 1 mg/kg, Rat MMN, 1 mg/kg sc): 0.19 | Kp at 30 min ([2]; rat, brain/plasma, 1 mg/kg, Rat N40 Gating, 1 mg/kg sc): 0.33
